Measured values published in patent US10688099B2, “Methods for modulating the amount of RNA transcripts” (PTC Therapeutics, Inc., priority 2013, dated 2020).

Assays:
[1] = tested on: human genes (total transcript abundance) in PNN 1-46 cells; test: RNA sequencing, total transcript abundance at the gene level, Compound vs DMSO control; type: cell-based
Procedure: PNN 1-46 cells derived from a Type I SMA patient were treated with Compound 702 at 500 nM for 24 hours. RNA was purified with the RNeasy Mini Kit (Qiagen) for mRNA sequencing on HiSeq 2500 (Illumina Inc., San Diego, Calif.). The quality of the total RNA was assessed using UV spectrophotometry and agarose gel electrophoresis. Template DNA molecules suitable for cluster generation were prepared from 1 ug of total RNA samples using the TruSeq RNA Sample Preparation Kit v2 (Illumina Inc., San Diego, Calif.) according to the manufacturer's instructions. The size distribution of the libraries was estimated by electrophoresis on Agilent High Sensitivity Bioanalyzer microfluidic chips. The minimum and average sizes of the amplified libraries were determined to be >200 nucleotides and 300-340 nucleotides, respectively. Libraries were quantified using the KAPA Library Quantification Kit (KK4824, Kapa Biosystems, Boston, Mass.). The libraries were pooled at equimolar concentrations and diluted prior to loading onto the flow cell of the HiSeq 2500 (Illumina Inc., San Diego, Calif.) for both clustering and sequencing. The libraries were extended and bridge-amplified to create single sequence clusters using the TruSeq Rapid PE Cluster Kit—HS (Illumina Inc., San Diego, Calif.). Amplified clusters in the flow cell were then sequenced with 50-bp paired-end reads using the TruSeq Rapid SBS Kit—HS (Illumina Inc., San Diego, Calif.) in rapid run mode. Real time image analysis and base calling were performed on the HiSeq 2500 instrument using the HiSeq Sequencing Control Software (HCS). […]
(§1) In order to estimate gene expression levels, paired-end RNAseq reads were subsequently mapped to RefSeq human transcripts (release 60) and the human genome (hg19) by using the short read aligner Bowtie2 (Langmead et al., 2012. Nature methods 9:357). The number of mapped reads for all transcript variants of a gene (counts) were combined into a single value and normalized denoted as rpkms (number of mapped reads per kilobase transcript per million sequenced reads, (Mortazavi et al., 2008. Nature methods 5:621)). The splice-site analysis was performed by mapping the paired-end RNASeq reads to RefSeq human transcripts using the alignment software GSNAP with default parameters and the option ‘sam-multiple-primaries’ in order to account for reads that were mapped multiple times to different splice variants. The number of reads spanning splice-sites was determined by applying the samtools mpileup software with default parameters for each transcript. Reads having an alignment start or end exactly on the splice-site were excluded from the analysis (Wu et al., 2005, Bioinformatics 21:1859; Wu et al., 2010, Bioinformatics 26:873; Li et al., 2009, Bioinformatics 25:2078). […]

[2] = tested on: splice junctions in human transcripts, PNN 1-46 cells; test: RNA sequencing, splice-site (splice junction) analysis, Compound vs DMSO control; type: cell-based
Procedure: PNN 1-46 cells derived from a Type I SMA patient were treated with Compound 702 at 500 nM for 24 hours. RNA was purified with the RNeasy Mini Kit (Qiagen) for mRNA sequencing on HiSeq 2500 (Illumina Inc., San Diego, Calif.). The quality of the total RNA was assessed using UV spectrophotometry and agarose gel electrophoresis. Template DNA molecules suitable for cluster generation were prepared from 1 ug of total RNA samples using the TruSeq RNA Sample Preparation Kit v2 (Illumina Inc., San Diego, Calif.) according to the manufacturer's instructions. The size distribution of the libraries was estimated by electrophoresis on Agilent High Sensitivity Bioanalyzer microfluidic chips. The minimum and average sizes of the amplified libraries were determined to be >200 nucleotides and 300-340 nucleotides, respectively. Libraries were quantified using the KAPA Library Quantification Kit (KK4824, Kapa Biosystems, Boston, Mass.). The libraries were pooled at equimolar concentrations and diluted prior to loading onto the flow cell of the HiSeq 2500 (Illumina Inc., San Diego, Calif.) for both clustering and sequencing. The libraries were extended and bridge-amplified to create single sequence clusters using the TruSeq Rapid PE Cluster Kit—HS (Illumina Inc., San Diego, Calif.). Amplified clusters in the flow cell were then sequenced with 50-bp paired-end reads using the TruSeq Rapid SBS Kit—HS (Illumina Inc., San Diego, Calif.) in rapid run mode. Real time image analysis and base calling were performed on the HiSeq 2500 instrument using the HiSeq Sequencing Control Software (HCS). CASAVA software version 1.8 was used for de-multiplexing and production of FASTQ sequence files.
as §1

[3] = 500 nM vs DMSO control, FIG. 2C

CCN1CCC(c2cc(C)c3nc(-c4cc5c(C)nc(C)cn5n4)cc(=O)n3c2)CC1 [Compound 702]
genes up- or downregulated, respectively, at threshold |Log2FC| 1 ([1]; 500 nM vs DMSO control, 11,714 human genes with rpkm >1, FIG. 2B): six | change in total mRNA abundance of SMN2 ([1]; 500 nM vs DMSO control, PNN 1-46, 24 hours, FIG. 2A): no change | Log2FC of total transcript expression of POLN (DNA polymerase nu) ([1]; 500 nM vs DMSO control, only changed gene among the gene families of FIG. 3): > 1 | deregulation in gene families involved in DNA or RNA metabolism or cell survival ([1]; 500 nM, 24 hours, PNN 1-46, FIG. 3): No deregulation | effect on STRN3 transcript variants [2, 3]: a switch between variants NM_014574 and NM_001083893 | genes to which the splice junctions with p>300 belong [2, 3]: SMN2, PDXDC1, STRN3, and pseudogene PDXDC2P | splice junctions with p>300 (p=Δ×Log2 FC) [2, 3]: 20 splice junctions | splice junctions with p>300 that belong to PDXDC1, all similarly affected [2, 3]: 15 splice junctions | splice junctions with p>100 (p=Δ×Log2 FC) ([2]; 500 nM vs DMSO control, out of about 300,000 splice junctions analyzed, FIG. 2C): 114 splice junctions | up spl j gene (gene with upregulated splice junctions) ([2]; PNN 1-46, 500 nM, 24 hours, splice junctions with p>100, * = pseudogene): STRN3 and APLP2 and TEX21P* and RCC1 and FOXM1 and VPS29
